Where a name gives a salt, the structure may show the parent alone.
Each compound was assayed against human σ1 receptor (Homo sapiens, UniProt Q99720) (assay: biochemical). Settings: not given.
Assay type: binding
Set-up: μ and σ1 dual binding: key to the marks not given beside the values

Sequence of human σ1 receptor (Q99720 whole entry): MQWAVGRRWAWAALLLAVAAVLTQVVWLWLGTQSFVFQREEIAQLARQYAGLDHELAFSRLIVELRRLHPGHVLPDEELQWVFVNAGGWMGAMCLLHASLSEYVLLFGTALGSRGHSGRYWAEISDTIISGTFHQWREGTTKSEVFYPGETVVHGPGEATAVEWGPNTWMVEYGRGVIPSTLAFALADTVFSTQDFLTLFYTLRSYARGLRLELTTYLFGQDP

Compound | Ki | μ and σ1 dual binding
CC1OC2(CCN(CCc3ccccc3)CC2)CN(c2cccnc2F)C1=O (centres unmarked) [Example 213, 4-(2-fluoropyridin-3-yl)-2-methyl-9-phenethyl-1-oxa-4,9-diazaspiro[5.5]undecan-3-one] | < 100 nM | –
CC1OC2(CCN(CCc3ccc(Cl)cn3)CC2)CN(c2ccccc2)C1=O (centres unmarked) [Example 38, 9-(2-(5-chloropypridin-2-yl)ethyl)-2-methyl-4-phenyl-1-oxa-4,9-diazaspiro[5.5]undecan-3-one hydrochloride] | < 500 nM | –
Cl.O=C1N(CCCO)CC2(CCN(CCc3ccccc3)CC2)OC12CC2 [Example 279, 12-(3-hydroxypropyl)-8-phenethyl-4-oxa-8,12-diazadispiro[2.1.5.3]tridecan-13-one hydrochloride] | – | ++
CC1OC2(CCN(CCc3cccnc3N)CC2)CN(c2ccccc2)C1=O (centres unmarked) [Example 234, 9-(2-(2-aminopyridin-3-yl)ethyl)-2-methyl-4-phenyl-1-oxa-4,9-diazaspiro[5.5]undecan-3-one hydrochloride] | < 500 nM | –
c1ccc(CCN2CCC3(CC2)CN(CCc2ccccc2)CCO3)cc1 [Example 337, 4,9-diphenethyl-1-oxa-4,9-diazaspiro[5.5]undecane dihydrochloride] | – | ++
CC(C)C1OC2(CCN(CCc3ccccn3)CC2)CN(c2ccccc2F)C1=O (centres unmarked) [Example 313, 4-(2-fluorophenyl)-2-isopropyl-9-(2-(pyridin-2-yl)ethyl)-1-oxa-4,9-diazaspiro[5.5]undecan-3-one hydrochloride] | < 500 nM | –
O=C1COC2(CCN(CCc3ccccc3)CC2)CN1Cc1ccc(C(F)(F)F)cn1 [Example 177, 9-phenethyl-4-((5-(trifluoromethyl)pyridin-2-yl)methyl)-1-oxa-4,9-diazaspiro[5.5]undecan-3-one hydrochloride] | < 100 nM | –
CNC(=O)c1cccc(CCN2CCC3(CC2)CN(c2ccccc2F)C(=O)C(C)O3)c1 (centres unmarked) [Example 276, 3-(2-(4-(2-fluorophenyl)-2-methyl-3-oxo-1-oxa-4,9-diazaspiro[5.5]undecan-9-yl)ethyl)-N-methylbenzamide] | < 500 nM | –
COc1ccc(CCN2CCC3(CC2)CN(c2ccccc2)C(=O)C(C)O3)cn1 (centres unmarked) [Example 111, 9-(2-(6-methoxypyridin-3-yl)ethyl)-2-methyl-4-phenyl-1-oxa-4,9-diazaspiro[5.5]undecan-3-one] | – | ++
CC1OC2(CCN(CCc3cncc(F)c3)CC2)CN(c2ccccc2)C1=O (centres unmarked) [Example 114, 9-(2-(5-fluoropyridin-3-yl)ethyl)-2-methyl-4-phenyl-1-oxa-4,9-diazaspiro[5.5]undecan-3-one hydrochloride] | < 500 nM | –

Same assay, conditions: combined class from Ki-σ1 (human σ1 receptor, A1) and Ki-μ (human μ-opioid receptor, A2) radioligand binding

Compound | μ and σ1 dual binding
CC1OC2(CCN(CCn3cccn3)CC2)CN(c2ccccc2)C1=O (centres unmarked) [Example 56] | ++
COc1ccccc1N1CC2(CCN(Cc3ccccc3)CC2)OCC1=O [Example 2, 9-benzyl-4-(2-methoxyphenyl)-1-oxa-4,9-diazaspiro[5.5]undecan-3-one] | ++

Same assay, conditions: read-out: μ and σ1 dual binding

Compound | Ki
CC1OC2(CCN(CCc3ccccc3)CC2)CN(CC(C)(C)O)C1=O (centres unmarked) [Example 183, 4-(2-hydroxy-2-methylpropyl)-2-methyl-9-phenethyl-1-oxa-4,9-diazaspiro[5.5]undecan-3-one] | > 500 nM
CC1OC2(CCN(CCc3csc(N)n3)CC2)CN(c2cnccc2C(F)(F)F)C1=O (centres unmarked) [Example 309, 9-(2-(2-aminothiazol-4-yl)ethyl)-2-methyl-4-(4-(trifluoromethyl)pyridin-3-yl)-1-oxa-4,9-diazaspiro[5.5]undecan-3-one] | > 500 nM
CC1OC2(CCN(CC(=O)Nc3ccccc3)CC2)CN(c2ccccc2)C1=O (centres unmarked) [Example 71, 2-(2-methyl-3-oxo-4-phenyl-1-oxa-4,9-diazaspiro[5.5]undecan-9-yl)-N-phenylacetamide] | > 500 nM
CC1OC2(CCN(CCc3ccc(Cl)nc3)CC2)CN(c2ccccc2)C1=O (centres unmarked) [Example 113, 9-(2-(6-chloropyridin-3-yl)ethyl)-2-methyl-4-phenyl-1-oxa-4,9-diazaspiro[5.5]undecan-3-one] | > 500 nM
O=C1COC2(CCN(CCc3ccccc3O)CC2)CN1c1ccccc1 [Example 289, 9-(2-hydroxyphenethyl)-4-phenyl-1-oxa-4,9-diazaspiro[5.5]undecan-3-one] | < 500 nM
CC(C)(C)OC(=O)Nc1nc(CCN2CCC3(CC2)CN(c2ccccc2)C(=O)C2(CC2)O3)cs1 [Example 118, tert-butyl (4-(2-(13-oxo-12-phenyl-4-oxa-8,12-diazadispiro[2.1.5.3]tridecan-8-yl)ethyl)thiazol-2-yl)carbamate] | > 500 nM
CC1OC2(CCN(CCc3ccccc3F)CC2)CN(c2cnccc2C(F)(F)F)C1=O (centres unmarked) [Example 126, 9-(2-fluorophenethyl)-2-methyl-4-(4-(trifluoromethyl)pyridin-3-yl)-1-oxa-4,9-diazaspiro[5.5]undecan-3-one hydrochloride] | < 100 nM
CC1OC2(CCN(CC(=O)N(C)c3ccccc3)CC2)CN(c2ccccc2)C1=O (centres unmarked) [Example 315, N-methyl-2-(2-methyl-3-oxo-4-phenyl-1-oxa-4,9-diazaspiro[5.5]undecan-9-yl)-N-phenylacetamide hydrochloride] | > 500 nM
CC1OC2(CCN(CCc3ccccc3)CC2)CN(c2ncccc2F)C1=O (centres unmarked) [Example 208, 4-(3-fluoropyridin-2-yl)-2-methyl-9-phenethyl-1-oxa-4,9-diazaspiro[5.5]undecan-3-one] | < 100 nM
O=C1N(c2ccccc2)CC2(CCN(CCc3cccc([N+](=O)[O-])c3)CC2)OC12CC2 [Example 92, 8-(3-nitrophenethyl)-12-phenyl-4-oxa-8,12-diazaspiro[2.1.5.3]tridecan-13-one] | > 500 nM
CC1OC2(CCN(CCc3ccccc3)CC2)CN(Cc2ccc(F)cc2)C1=O (centres unmarked) [Example 158, 4-(4-fluorobenzyl)-2-methyl-9-phenethyl-1-oxa-4,9-diazaspiro[5.5]undecan-3-one hydrochloride] | < 100 nM
Nc1nc(CCN2CCC3(CC2)CN(Cc2ccc(C(F)(F)F)cn2)C(=O)CO3)cs1 [Example 304, 9-(2-(2-aminothiazol-4-yl)ethyl)-4-((5-(trifluoromethyl)pyridin-2-yl)methyl)-1-oxa-4,9-diazaspiro[5.5]undecan-3-one] | < 500 nM
O=C1COC2(CCN(CCc3ccccc3)CC2)CN1Cc1ncc[nH]1 [Example 284, 4-((1H-imidazol-2-yl)methyl)-9-phenethyl-1-oxa-4,9-diazaspiro[5.5]undecan-3-one hydrochloride] | > 500 nM
CC1OC2(CCN(CCc3ccc(N)cn3)CC2)CN(c2ccccc2)C1=O (centres unmarked) [Example 236, 9-(2-(5-aminopyridin-2-yl)ethyl)-2-methyl-4-phenyl-1-oxa-4,9-diazaspiro[5.5]undecan-3-one] | > 500 nM
CC1OC2(CCN(CCc3ncccc3F)CC2)CN(Cc2ccc(F)cn2)C1=O (centres unmarked) [Example 47, 9-(2-(3-fluoropyridin-2-yl)ethyl)-4-((5-fluoropyridin-2-yl)methyl)-2-methyl-1-oxa-4,9-diazaspiro[5.5]undecan-3-one hydrochloride] | < 500 nM
O=C(CN1CCC2(CC1)CN(c1ccccc1)C(=O)C1(CC1)O2)c1ccccc1 [Example 97, 8-(2-oxo-2-phenylethyl)-12-phenyl-4-oxa-8,12-diazadispiro[2.1.5.3]tridecan-13-one] | > 500 nM
CC1OC2(CCN(CCc3cccc(C#N)c3)CC2)CN(c2ccccc2)C1=O (centres unmarked) [Example 75, 3-(2-(2-methyl-3-oxo-4-phenyl-1-oxa-4,9-diazaspiro[5.5]undecan-9-yl)ethyl)benzonitrile hydrochloride] | < 100 nM
CC1OC2(CCN(CCc3ccc(F)cc3)CC2)CN(c2ccccc2)C1=O (centres unmarked) [Example 55, 9-(4-fluorophenethyl)-2-methyl-4-phenyl-1-oxa-4,9-diazaspiro[5.5]undecan-3-one hydrochloride] | < 100 nM
O=C(CN1CCC2(CC1)CN(Cc1ccc(C(F)(F)F)cn1)C(=O)CO2)c1ccccc1 [Example 99, 9-(2-oxo-2-phenylethyl)-4-((5-(trifluoromethyl)pyridin-2-yl)methyl)-1-oxa-4,9-diazaspiro[5.5]undecan-3-one] | > 500 nM
CC1OC2(CCN(CCc3ccccc3)CC2)CN(c2cncc(F)c2)C1=O (centres unmarked) [Example 216, 4-(5-fluoropyridin-3-yl)-2-methyl-9-phenethyl-1-oxa-4,9-diazaspiro[5.5]undecan-3-one hydrochloride] | < 500 nM
CC1OC2(CCN(CCn3ccc([N+](=O)[O-])n3)CC2)CN(c2ccccc2)C1=O (centres unmarked) [Example 110, 2-methyl-9-(2-(3-nitro-1H-pyrazol-1-yl)ethyl)-4-phenyl-1-oxa-4,9-diazaspiro[5.5]undecan-3-one] | > 500 nM
O=C1COC2(CCN(CCc3ccccn3)CC2)CN1Cc1ccc(C(F)(F)F)cn1 [Example 98, 9-(2-(pyridin-2-yl)ethyl)-4-((5-(trifluoromethyl)pyridin-2-yl)methyl)-1-oxa-4,9-diazaspiro[5.5]undecan-3-one hydrochloride] | < 500 nM
CC1OC2(CCN(CCc3ncccc3F)CC2)CN(c2cccnc2C(F)(F)F)C1=O (centres unmarked) [Example 48, 9-(2-(3-fluoropyridin-2-yl)ethyl)-2-methyl-4-(2-(trifluoromethyl)pyridin-3-yl)-1-oxa-4,9-diazaspiro[5.5]undecan-3-one] | > 500 nM
CC1OC2(CCN(CCc3cccc(F)c3)CC2)CN(c2ccccc2)C1=O (centres unmarked) [Example 54, 9-(3-fluorophenethyl)-2-methyl-4-phenyl-1-oxa-4,9-diazaspiro[5.5]undecan-3-one hydrochloride] | < 100 nM
CC1OC2(CCN(CCc3cccnc3)CC2)CN(c2ccccc2)C1=O (centres unmarked) [Example 73, 2-methyl-4-phenyl-9-(2-(pyridin-3-yl)ethyl)-1-oxa-4,9-diazaspiro[5.5]undecan-3-one] | < 500 nM
C=C1OC2(CCN(CCc3ccccc3)CC2)CN(c2ccccc2F)C1=O [Example 22, 4-(2-fluorophenyl)-2-methylene-9-phenethyl-1-oxa-4,9-diazaspiro[5.5]undecan-3-one] | > 500 nM

Source: US10703765B2 (priority 2014, dated 2020)
